The source of these data is US7550506B2, “Amino acid derived prodrugs of propofol, compositions and uses thereof” (XenoPort, Inc., priority 2004, dated 2009).

One data set has as its system pancreatin. The conditions noted are these: 1% (w/v) pancreatin, substrate 5.0 μM, pH 7.5, 37° C. As for the experimental part: (§1) The stability of propofol prodrugs were evaluated in one or more in vitro systems using a variety of tissue preparations following methods known in the art. Tissues were obtained from commercial sources (e.g., Pel-Freez Biologicals, Rogers, Ark., or GenTest Corporation, Woburn, Mass.). Experimental conditions used for the in vitro studies are described in Table 1 below. Each preparation was incubated with test compound at 37° C. for one hour. Aliquots (50 μL) were removed at 0, 30, and 60 min and quenched with 0.1% trifluoroacetic acid in acetonitrile. Samples were then centrifuged and analyzed by LC/MS/MS (see Example 134 below for method details). Stability of drug conjugates towards specific enzymes (e.g., peptidases, etc.) were also assessed in vitro by incubation with the purified enzyme.
Pancreatin Stability: Stability studies were conducted by incubating conjugate (5 μM) with 1% (w/v) pancreatin (Sigma, P-1625, from porcine pancreas) in 0.025 M Tris buffer containing 0.5 M NaCl (pH 7.5) at 37° C. for 60 min. The reaction was stopped by addition of 2 volumes of methanol. After centrifugation at 14,000 rpm for 10 min, the supernatant was removed and analyzed by LC/MS/MS.

Data set [1] is described as follows: Caco-2 homogenate S9 stability. The format is in vitro ADME. The conditions noted are these: Caco-2 homogenate S9 0.5 mg protein per mL, substrate 5.0 μM, 37° C. The protocol:
Caco-2 Homogenate S9 Stability: Caco-2 cells were grown for 21 days prior to harvesting. Culture medium was removed and cell monolayers were rinsed and scraped off into ice-cold 10 mM sodium phosphate/0.15 M potassium chloride, pH 7.4. Cells were lysed by sonication at 4° C. using a probe sonicator. Lysed cells were then transferred into 1.5 mL centrifuge vials and centrifuged at 9000 g for 20 min at 4° C. The resulting supernatant (Caco-2 cell homogenate S9 fraction) was aliquoted into 0.5 mL vials and stored at −80° C. until used.
For stability studies, prodrug (5 μM) was incubated in Caco-2 homogenate S9 fraction (0.5 mg protein per mL) for 60 min at 37° C. Concentrations of intact prodrug and released propofol were determined at zero time and 60 minutes using LC/MS/MS.

The conditions of data set [2]: substrate 2.0 μM, 37° C.; for % of Propofol Released from Propofol Prodrugs after 60 min, Human Plasma: no cofactors; for % of Propofol Released from Propofol Prodrugs after 60 min, Human Liver S9 (0.5 mg/mL): NADPH. The protocol: as §1
The conditions of data set [3]: oral dosing in rats (Raoof et al. 1996); cited from earlier work.

On to `CC(C)c1cccc(C(C)C)c1OC(=O)OC(C)C(NC(=O)C(N)CCCN)C(=O)O.Cl.Cl` (stereo not shown) [(28), H-Orn-Thr(γ-OC(O)OPropofol)-OH Bis-Hydrochloride], for which the “% of Propofol Released from Propofol Prodrugs after 60 min, Pancreatin” value (“% of Propofol Released … Pancreatin” below) in the data set with pancreatin came out at 0%. The “% of Propofol Released from Propofol Prodrugs after 60 min, Caco-2 S9” value (“% of Propofol Released … Caco-2 S9” for short) in data set [1] is 54%. In addition, in data set [2], the “% of Propofol Released from Propofol Prodrugs after 60 min, Human Plasma” value (“% of Propofol Released … Human Plasma” for short) was 2% and the “% of Propofol Released from Propofol Prodrugs after 60 min, Human Liver S9 (0.5 mg/mL)” value (“% of Propofol Released … (0.5 mg/mL)” below) stood at 11%.
Turning to `CC(C)c1cccc(C(C)C)c1OC(=O)OC(C)C(NC(=O)C(N)Cc1cnc[nH]1)C(=O)O.Cl.Cl` (stereo not shown) [(25), H-His-Thr(γ-OC(O)OPropofol)-OH Bis-Hydrochloride], the “% of Propofol Released … Pancreatin” value with pancreatin is given as 0%. For the same compound, in data set [1], the “% of Propofol Released … Caco-2 S9” value worked out at 52%. In data set [2], the “% of Propofol Released … Human Plasma” value worked out at 0% and the “% of Propofol Released … (0.5 mg/mL)” value is recorded as 8%.
With `CC(C)c1cccc(C(C)C)c1OC(=O)OC(C)C(NC(=O)C(N)CCCN=C(N)N)C(=O)O.Cl.Cl.Cl` (stereo not shown) [(23), H-Arp-Thr(γ-OC(O)OPropofol)-OH Tris-Hydrochloride], in the data set with pancreatin, the “% of Propofol Released … Pancreatin” value was determined as 4%. Also, the “% of Propofol Released … Caco-2 S9” value in data set [1] was 100%. Moreover, in data set [2], the “% of Propofol Released … Human Plasma” value stood at 25% and the “% of Propofol Released … (0.5 mg/mL)” value came to 93%.
For `CC(C)c1cccc(C(C)C)c1OC(=O)OC(C)C(NC(=O)C(N)CCCCN)C(=O)O.Cl.Cl` (stereo not shown) [(18), H-Lys-Thr(γ-OC(O)OPropofol)-OH Bis-Hydrochloride], the “% of Propofol Released … Pancreatin” value in the data set with pancreatin is recorded as 1%. The “% of Propofol Released … Caco-2 S9” value in data set [1] is 33%. In data set [2], the “% of Propofol Released … Human Plasma” value was 12% and the “% of Propofol Released … (0.5 mg/mL)” value amounted to 32%.
The corresponding values for `CSCCC(N)C(=O)NC(C(=O)O)C(C)OC(=O)Oc1c(C(C)C)cccc1C(C)C.Cl` (stereo not shown) [(27), H-Met-Thr(γ-OC(O)OPropofol)-OH Hydrochloride] are 0%, 20%, 0% and 0%.
Take `CC(C)c1cccc(C(C)C)c1OC(=O)OC(C)C(NC(=O)CN)C(=O)O` (stereo not shown) [(10), H-Gly-Thr(γ-OC(O)OPropofol)-OH]: the “% of Propofol Released … Pancreatin” value in the data set on pancreatin amounted to 43%. In data set [1], the “% of Propofol Released … Caco-2 S9” value is 30%. In data set [2], the “% of Propofol Released … Human Plasma” value was found to be 2% and the “% of Propofol Released … (0.5 mg/mL)” value was found to be 2%.
`CC(C)c1cccc(C(C)C)c1OC(=O)OC(C)C(NC(=O)C(N)CN)C(=O)O.Cl.Cl` (stereo not shown) [(24), H-Dap-Thr(γ-OC(O)OPropofol)-OH Bis-Hydrochloride]: the “% of Propofol Released … Pancreatin” value with pancreatin was 0%. Further, the “% of Propofol Released … Caco-2 S9” value in data set [1] is on record as 21%. Further, in data set [2], the “% of Propofol Released … Human Plasma” value is 0% and the “% of Propofol Released … (0.5 mg/mL)” value was determined as 1%.
Take `CC(C)c1cccc(C(C)C)c1O` [propofol, 2,6-diisopropylphenol]: in data set [3], the “Share of the administered drug that undergoes first pass metabolism” value was “approximately 90%”.
For the compound “H-Ala-Thr(γ-OC(O)OPropofol)-OH Hydrochloride [(16)]”, in data set [1], the “% of Propofol Released … Caco-2 S9” value was 33%.
Regarding `CC(C)CC(N)C(=O)NC(C(=O)O)C(C)OC(=O)Oc1c(C(C)C)cccc1C(C)C.Cl` (stereo not shown) [(26), H-Leu-Thr(γ-OC(O)OPropofol)-OH Hydrochloride], the “% of Propofol Released … Pancreatin” value with pancreatin was found to be 30%. Also, in data set [1], the “% of Propofol Released … Caco-2 S9” value was determined as 93%. In data set [2], the “% of Propofol Released … Human Plasma” value is 0% and the “% of Propofol Released … (0.5 mg/mL)” value was determined as 37%.
